Values of other authors as cited in US20130096316A1, “Novel Method for Preparation of Bisnorcymerine and Salts Thereof” (QR PHARMA, INC., priority 2011, published 2013).

Target: human BChE (Homo sapiens, UniProt P06276)
Conditions: ratio of the AChE IC50 to the BChE IC50; cited from Yu et al., 1999

Sequence of human BChE (P06276 29-602): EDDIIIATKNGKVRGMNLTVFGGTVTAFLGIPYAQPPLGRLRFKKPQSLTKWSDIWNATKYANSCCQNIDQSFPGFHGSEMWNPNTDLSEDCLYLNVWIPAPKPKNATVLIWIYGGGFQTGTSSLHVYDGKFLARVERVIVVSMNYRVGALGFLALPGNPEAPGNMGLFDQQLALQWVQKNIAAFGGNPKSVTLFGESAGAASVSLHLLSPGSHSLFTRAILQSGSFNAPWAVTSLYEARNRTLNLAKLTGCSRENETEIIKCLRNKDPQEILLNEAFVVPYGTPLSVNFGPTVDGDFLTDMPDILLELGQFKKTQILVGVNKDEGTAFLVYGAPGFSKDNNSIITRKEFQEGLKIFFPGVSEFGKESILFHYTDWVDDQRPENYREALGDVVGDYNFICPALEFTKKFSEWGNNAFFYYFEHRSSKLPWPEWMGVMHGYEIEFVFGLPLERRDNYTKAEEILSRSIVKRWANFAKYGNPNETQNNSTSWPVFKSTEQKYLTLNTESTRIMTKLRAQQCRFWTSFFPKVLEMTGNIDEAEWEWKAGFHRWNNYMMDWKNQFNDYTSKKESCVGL

For CC(C)c1ccc(NC(=O)Oc2ccc3c(c2)[C@]2(C)CCNC2N3)cc1 (stereo partly drawn) [Compound 1, (3aS)-3a-methyl-1,2,3,3a,8,8a-hexahydropyrrolo[2,3-b]indol-5-yl (4-isopropylphenyl)carbamate], the “selectivity for inhibition of BChE as compared to AChE” value is given as 110 fold.
